Test results as given in US11883526B2 (priority 2019, dated 2024).
Several values for one entry are separate records, joined by “and”; a condition that tells them apart may be missing. Equal entries are not always repeated. Entries after “also recorded” stand apart in the source; their conditions may differ. Structures can show the parent of a compound that is named as a salt. Where two headings read alike, the source gives them in different places. Marks after values point to notes of the source that are not given here.

Experiments:
[1] = tested on: female Sprague-Dawley rats; assay: Single dose neurotoxicity study: mortality, clinical observations, body weight; assay type: in vivo, rat; settings: for Clinical observation incidence: Abnormal respiration / Clinical observation incidence: Ataxia / Clinical observation incidence: Catalepsy / Clinical observation incidence: Chromodacryorrhea / Clinical observation incidence: Decreased general activity / Clinical observation incidence: Decubitus / Clinical observation incidence: Increased general activity / Clinical observation incidence: Narrowed palpebral fissure / Clinical observation incidence: Piloerection / Clinical observation incidence: Salivation (out of normal) / Clinical observation incidence: audible respiration / Clinical observation incidence: bradypnoea: single dose
Protocol: The injection volume was 5 mL/kg.
(§1) Body weight and body weight gain were measured daily.

[2] = tested on: female Sprague-Dawley rats; assay: 14-day repeated dose neurotoxicity study: brain histopathology (neuronal necrosis in PCG/RSC); settings: up to 54 mg/day for 14 days, 48 hours after last instillation; hydrochloride
Protocol: Due to logistic constraints associated with the whole body perfusion procedure of the animals at necropsy, a staggered start was applied to the study. Consequently, all 5 groups of main study animals were divided into three subgroups of 4 animals each. For each of these subgroups treatment started on a different day. The perfusion procedure is the is the same as described for the single dose study.
All vehicle- and esketamine HCl-treated animals were sacrificed at 48 hours after the last instillation. […] The brain tissue of the vehicle control-, positive control- and esketamine HCl-treated rats were processed at the same time and handled in the same way in batches of 4 animals per group.
Brain tissue was sampled and processed routinely. The trimmed and embedded tissue was sectioned and stained with hematoxylin-eosin (HE). Histoprocessing and staining were carried out in three batches of 4 animals per group (each batch thus containing 4 animals from vehicle control-, positive control- and the three esketamine HCl-treated groups).
Histopathological examination was performed on 7 levels of brain tissue according to Bolon (2013. Toxicol. Pathol. 41(7), 1028-1048) from the vehicle control-, positive control-, and high dose esketamine HCl-treated groups in the single dose study, and in all groups in the repeated dose study.
The microscopic finding of neuronal necrosis in the PCG/RSC of the brain was graded unilaterally according to the number of necrotic neurons observed over the total length of the PCG/RSC structure visible in the tissue section (usually around 3-5 mm) utilizing the following criteria:

[3] = tested on: female Sprague-Dawley rats; assay: 14-day repeated dose neurotoxicity study: mortality, clinical observations, body weight; assay type: in vivo, rat; settings: for Clinical observation incidence: Abnormal respiration / Clinical observation incidence: Ataxia / Clinical observation incidence: Chromodacryorrhea / Clinical observation incidence: Decreased general activity / Clinical observation incidence: Decubitus / Clinical observation incidence: Increased general activity / Clinical observation incidence: Salivation (out of normal) / Clinical observation incidence: audible respiration / Clinical observation incidence: bradypnoea: 14 days
Protocol: as §1

[4] = Solubility of esketamine HCl; settings: room temperature, pH 4.5, factor 1.15
Protocol: The clinical investigational product is an aqueous solution of the drug substance, esketamine hydrochloride (HCl). This formulation is administered intranasally to patients using a dual nasal spray device, which delivers one spray into each nostril. […] The formulation was stored at 37° C. for stability reasons until dosing.

[5] = tested on: female Sprague-Dawley rats; assay: Single dose neurotoxicity study: brain histopathology (neuronal necrosis in PCG/RSC); settings: single dose up to 72 mg, 48 or 96 hours post-dose; hydrochloride
Protocol: In order to prepare for brain histopathology examination, all main study animals were perfused at necropsy. Prior to the perfusion, rats were anesthetized with isoflurane. After injection of 0.1 ml heparin, the blood of the rat was flushed out with a physiological saline solution by intraarterial insertion of a needle in the abdominal aorta. Thereafter the rat was perfused with glutaraldehyde 3% in potassium phosphate 0.09M and 1.4% sucrose. Due to logistic constraints at maximum 30 animals could undergo the whole-body perfusion procedure on a given day. Therefore, a staggered start of treatment was applied to all 5 groups of main study animals. Consequently, subgroups of 4 main study animals of the vehicle- and 36 and 54 mg-dosed groups, and 5 main study animals of the 72 mg-dosed and positive control groups, were dosed on 6 consecutive days, respectively.
The vehicle control, positive control, and esketamine HCl-dosed animals were sacrificed at either 48 hours (i.e., the first 12 or 15 rats per group) or 96 hours after the dose administration time (i.e., the last 12 or 15 rats per group). The brain tissue of the vehicle control-, positive control- and esketamine HCl-treated rats were processed at the same time and handled in the same way in batches of 4 or 5 animals per group.
Brain tissue was sampled and processed routinely. […]

[6] = From the text: This example provides an LC-MS/MS method for the determination of ketamine and norketamine in sodium heparin human plasma using ketamine-d4 and norketamine-d4 as the respective internal standards (IS).
[7] = tested on: adult female Sprague Dawley rats; settings: 3 hours after a single intraperitoneal injection; cited from earlier work

CN[C@]1(c2ccccc2Cl)CCCCC1=O [esketamine HCl, (S)-2-(2-chlorophenyl)-2-(methylamino)cyclohexanone hydrochloride]
duration of decreased activity, decubitus, bradypnea, catalepsy (anesthesia) after last instillation ([1]; 36 mg): 15 to 30 min | duration of ataxia after decreased activity had subsided ([1]; 54 mg, hydrochloride): 1.5 to 3 h and 1 to 3 h | duration of ataxia after decreased activity had subsided ([1]; 72 mg): ≥ 3 h | Clinical observation incidence: Abnormal respiration ([1]; 36 mg intranasal): 22/24 *** | Clinical observation incidence: Ataxia ([1]; 36 mg intranasal): 24/24 *** | Clinical observation incidence: Catalepsy ([1]; 36 mg intranasal): 20/24 *** | Clinical observation incidence: Chromodacryorrhea ([1]; 36 mg intranasal): 0/24 | Clinical observation incidence: Decreased general activity ([1]; 36 mg intranasal): 23/24 *** | Clinical observation incidence: Decubitus ([1]; 36 mg intranasal): 23/24 *** | Clinical observation incidence: Increased general activity ([1]; 36 mg intranasal): 24/24 *** | Clinical observation incidence: Narrowed palpebral fissure ([1]; 36 mg intranasal): 7/24** | Clinical observation incidence: Piloerection ([1]; 36 mg intranasal): 0/24 | Clinical observation incidence: Salivation (out of normal) ([1]; 36 mg intranasal): 23/24 *** | Clinical observation incidence: audible respiration ([1]; 36 mg intranasal): 10/24 *** | Clinical observation incidence: bradypnoea ([1]; 36 mg intranasal): 22/24 *** | Clinical observation incidence: Abnormal respiration ([1]; 54 mg intranasal): 22/24 *** | Clinical observation incidence: Ataxia ([1]; 54 mg intranasal): 24/24 *** | Clinical observation incidence: Catalepsy ([1]; 54 mg intranasal): 23/24 *** | Clinical observation incidence: Chromodacryorrhea ([1]; 54 mg intranasal): 0/24 | Clinical observation incidence: Decreased general activity ([1]; 54 mg intranasal): 23/24 *** | Clinical observation incidence: Decubitus ([1]; 54 mg intranasal): 23/24 *** | Clinical observation incidence: Increased general activity ([1]; 54 mg intranasal): 24/24 *** | Clinical observation incidence: Narrowed palpebral fissure ([1]; 54 mg intranasal): 10/24 *** | Clinical observation incidence: Piloerection ([1]; 54 mg intranasal): 0/24 | Clinical observation incidence: Salivation (out of normal) ([1]; 54 mg intranasal): 24/24 *** | Clinical observation incidence: audible respiration ([1]; 54 mg intranasal): 3/24 | Clinical observation incidence: bradypnoea ([1]; 54 mg intranasal): 21/24 *** | Clinical observation incidence: Abnormal respiration ([1]; 72 mg intranasal): 30/30 *** | Clinical observation incidence: Catalepsy ([1]; 72 mg intranasal): 30/30 *** | Clinical observation incidence: Chromodacryorrhea ([1]; 72 mg intranasal): 0/30 | Clinical observation incidence: Decreased general activity ([1]; 72 mg intranasal): 30/30 *** | Clinical observation incidence: Decubitus ([1]; 72 mg intranasal): 30/30 *** | Clinical observation incidence: Increased general activity ([1]; 72 mg intranasal): 29/30 *** | Clinical observation incidence: Narrowed palpebral fissure ([1]; 72 mg intranasal): 22/30 *** | Clinical observation incidence: Piloerection ([1]; 72 mg intranasal): 0/30 | Clinical observation incidence: Salivation (out of normal) ([1]; 72 mg intranasal): 29/30 *** | Clinical observation incidence: audible respiration ([1]; 72 mg intranasal): 2/30 | Clinical observation incidence: bradypnoea ([1]; 72 mg intranasal): 30/30 *** | mortality ([1]; single intranasal dose 72 mg, within 30 minutes): two main study animals and two satellite TK animals died | mortality ([1]; single intranasal dose up to 54 mg): No test article related mortality | histopathological lesions / neuronal necrosis in the brain [2]: absence of neuronal necrosis; also recorded: No histopathological lesions | Clinical observation incidence: Abnormal respiration ([3]; 18 mg/day intranasal): 2/12 | Clinical observation incidence: Ataxia ([3]; 18 mg/day intranasal): 12/12*** | Clinical observation incidence: Chromodacryorrhea ([3]; 18 mg/day intranasal): 0/12 | Clinical observation incidence: Decreased general activity ([3]; 18 mg/day intranasal): 5/12 | Clinical observation incidence: Decubitus ([3]; 18 mg/day intranasal): 0/12 | Clinical observation incidence: Increased general activity ([3]; 18 mg/day intranasal): 12/12*** | Clinical observation incidence: Salivation (out of normal) ([3]; 18 mg/day intranasal): 12/12*** | Clinical observation incidence: audible respiration ([3]; 18 mg/day intranasal): 2/12 | Clinical observation incidence: bradypnoea ([3]; 18 mg/day intranasal): 0/12 | Clinical observation incidence: Abnormal respiration ([3]; 36 mg/day intranasal): 11/12*** | Clinical observation incidence: Ataxia ([3]; 36 mg/day intranasal): 12/12*** | Clinical observation incidence: Chromodacryorrhea ([3]; 36 mg/day intranasal): 0/12 | Clinical observation incidence: Decreased general activity ([3]; 36 mg/day intranasal): 12/12*** | Clinical observation incidence: Decubitus ([3]; 36 mg/day intranasal): 2/12 | Clinical observation incidence: Increased general activity ([3]; 36 mg/day intranasal): 12/12*** | Clinical observation incidence: Salivation (out of normal) ([3]; 36 mg/day intranasal): 12/12*** | Clinical observation incidence: audible respiration ([3]; 36 mg/day intranasal): 6/12** | Clinical observation incidence: bradypnoea ([3]; 36 mg/day intranasal): 11/12*** | Clinical observation incidence: Abnormal respiration ([3]; 54 mg/day intranasal): 12/12*** | Clinical observation incidence: Ataxia ([3]; 54 mg/day intranasal): 12/12*** | Clinical observation incidence: Chromodacryorrhea ([3]; 54 mg/day intranasal): 0/12 | Clinical observation incidence: Decreased general activity ([3]; 54 mg/day intranasal): 12/12*** | Clinical observation incidence: Decubitus ([3]; 54 mg/day intranasal): 8/12*** | Clinical observation incidence: Increased general activity ([3]; 54 mg/day intranasal): 12/12*** | Clinical observation incidence: Salivation (out of normal) ([3]; 54 mg/day intranasal): 12/12*** | Clinical observation incidence: audible respiration ([3]; 54 mg/day intranasal): 6/12** | Clinical observation incidence: bradypnoea ([3]; 54 mg/day intranasal): 12/12*** | mortality ([3]; up to 54 mg/day for 14 days): No test article related mortality | maximum solubility expressed as base [4]: 180 mg esketamine base/mL | histopathological lesions / neuronal necrosis in the brain [5]: no morphological evidence of neuronal degeneration; also recorded: absent; also recorded: No signs of neuronal necrosis; also recorded: no neuropathological lesions

CNC1(c2ccccc2Cl)CCCCC1=O (racemic) [ketamine, reference compound]
QC sample freeze/thaw stability ([6]; freeze (−20° C.)/thaw (ice-water bath)): 3 freeze (−20° C.)/thaw (ice-water bath) cycles | QC sample freeze/thaw stability ([6]; freeze (−20° C.)/thaw (room temperature)): 3 freeze (−20° C.)/thaw (room temperature) cycles | QC sample long-term storage stability ([6]; human plasma QC sample at −20° C.): 1552 days at −20 °C | QC sample bench-top stability ([6]; human plasma QC sample, room temperature): 68.5 hours at room temp | Stock solution stability (spike solutions) ([6]; ketamine/norketamine spike solutions at −20° C.): 610 days at −20 °C for ketamine/norketamine spike solutions | Processed sample stability ([6]; room temperature): 146.5 hours at room temperature | Whole Blood Stability ([6]; room temperature and ice-water bath (0-4° C.)): 120 minutes at room temperature and in an ice-water bath (0-4° C.) | Stock solution stability ([6]; stock solutions at room temperature under white light): 6 h | Stock solution stability ([6]; stock solutions at −20° C.): 15100 h | ED50 for induction of neuronal vacuolation in the PCG/RSC [7]: 47.5 mg/kg body weight
